The data set is described as follows: Particle size distribution by laser diffraction (Sympatec, Fraunhofer mode). The conditions noted are these: for optical diameter that 50% by volume of the micronized particles are smaller than / optical diameter that 90% by volume of the micronized particles are smaller than: micronized active agent particles. The class given is physicochemical.
The mark [1] stands for this setting: Example 4, Table 2, micronized API.
The mark [2] stands for this setting: Example 9, Table 9, primary particle size.
The mark [3] stands for this setting: Example 10, Table 11, Triple GFM primary particle size.
Setting [4] is: Example 10, Table 12, Triple TFM primary particle size.

Consider seven molecules from patent publication US9415009B2 (Pearl Therapeutics, Inc., priority 2009, dated 2016).

Take `COc1ccc(C[C@@H](C)NC[C@H](O)c2ccc(O)c(NC=O)c2)cc1` (racemic) [Coarse FF API, (±)-2-hydroxy-5-[(1RS)-1-hydroxy-2-[[(1RS)-2-(4-methoxyphenyl)-1-methylethyl]-amino]ethyl]formanilide]: the Span under setting [1] came to 2.0.
`COc1ccc(C[C@@H](C)NC[C@H](O)c2ccc(O)c(NC=O)c2)cc1` (racemic) [FF API, (±)-2-hydroxy-5-[(1RS)-1-hydroxy-2-[[(1RS)-2-(4-methoxyphenyl)-1-methylethyl]-amino]ethyl]formanilide]: the Span is recorded as 1.8 under setting [2]; 1.9 under setting [3]; 1.9 under setting [4]; 1.8 (Example 11, Table 14).
With `COc1ccc(C[C@@H](C)NC[C@H](O)c2ccc(O)c(NC=O)c2)cc1` (racemic) [Fine FF API, (±)-2-hydroxy-5-[(1RS)-1-hydroxy-2-[[(1RS)-2-(4-methoxyphenyl)-1-methylethyl]-amino]ethyl]formanilide], under setting [1], the Span was determined as 1.5 and the “d90 (μm)” value is 2.3 μm.
Take `CCC(=O)O[C@]1(C(=O)SCF)[C@H](C)C[C@H]2[C@@H]3C[C@H](F)C4=CC(=O)C=C[C@]4(C)[C@@]3(F)[C@@H](O)C[C@@]21C` [FP, S-(fluoromethyl)6^α,9-difluoro-11^β-17-dihydroxy-16^α-methyl-3-oxoandrosta-1,4-diene-17^β-carbothioate, 17-propionate]: the “optical diameter that 50% by volume of the micronized particles are smaller than” value (shortened to “optical diameter that 50% by volume”) was found to be 2.6 μm and the “optical diameter that 90% by volume of the micronized particles are smaller than” value (shortened to “optical diameter that 90% by volume”) is reported as 6.6 μm.
For the molecule `C[C@@H]1C[C@H]2[C@@H]3CCC4=CC(=O)C=C[C@]4(C)[C@@]3(Cl)[C@@H](O)C[C@]2(C)[C@@]1(OC(=O)c1ccco1)C(=O)CCl` [MF, 9α,21-dichloro-11β,17-dihydroxy-16α-methylpregna-1,4-diene-3,20-dione 17-(2-furoate)], the “optical diameter that 50% by volume” value came out at 1.6 μm and the “optical diameter that 90% by volume” value amounted to 3.5 μm. For the same molecule, under setting [2], the Span stood at 2.2, the “×10 (μm)” value worked out at 0.4 μm, the “×50 (μm)” value was determined as 1.1 μm and the “×90 (μm)” value is listed as 2.8 μm. Under setting [3], the Span was 1.9, the “d10 (μm)” value is 0.4 μm, the “d50 (μm)” value came out at 1.0 μm and the “d90 (μm)” value is recorded as 2.3 μm. Under setting [4], the Span came out at 2.2, the “d10 (μm)” value was found to be 0.4 μm, the “d50 (μm)” value is given as 1.1 μm and the “d90 (μm)” value turned out to be 2.8 μm.
Take `C[N+]1(C)[C@@H]2C[C@@H](OC(=O)C(O)(c3cccs3)c3cccs3)C[C@H]1[C@@H]1O[C@@H]12` [Micronized Tiotropium Bromide Anhydrous, tiotropium bromide]: under setting [4], the Span amounted to 2.7, the “d10 (μm)” value is 0.5 μm, the “d50 (μm)” value is reported as 1.3 μm and the “d90 (μm)” value was found to be 3.9 μm.
Consider `OCc1cc(C(O)CNCCCCCCOCCCCc2ccccc2)ccc1O` (stereo not drawn) [SX, 4-hydroxy-α1-[[[6-(4-phenylbutoxy)hexyl]amino]methyl]-1,3-benzenedimethanol, 1-hydroxy-2-naphthalenecarboxylate], for which the “optical diameter that 50% by volume” value is reported as 2 μm and the “optical diameter that 90% by volume” value came to 3.9 μm.
